Source: patent US10669274B2, “Azaphenalene-3-one derivative, preparation method therefor, and application therof” (SUZHOU KANGRUN PHARMACEUTICALS INC., priority 2017, dated 2020)

Molecular target: T1, PARP1 (Homo sapiens, UniProt P09874)
T1 construct: purchased Trevigen
Experiment: Determination of PARP1 inhibitory activity (Universal PARP colorimetric assay kit, Trevigen)
Type: biochemical
Conditions: for IC50: PARP1, OD at 450 nm, Logit method; for Inhibition (%): footnote: inhibition rate below 500 nM unless indicating otherwise
Procedure: Determination of PARP1 inhibitory activity
Method for determining PARP1 inhibitory activity:
(1) adding 50 μL of 1X PARP Buffer to each well, incubating for 30 min at room temperature, and drying;
(3) adding 25 μL of 1X PARP1 cocktail to each well and incubating for 60 min at room temperature;

T1 sequence (P09874 whole entry): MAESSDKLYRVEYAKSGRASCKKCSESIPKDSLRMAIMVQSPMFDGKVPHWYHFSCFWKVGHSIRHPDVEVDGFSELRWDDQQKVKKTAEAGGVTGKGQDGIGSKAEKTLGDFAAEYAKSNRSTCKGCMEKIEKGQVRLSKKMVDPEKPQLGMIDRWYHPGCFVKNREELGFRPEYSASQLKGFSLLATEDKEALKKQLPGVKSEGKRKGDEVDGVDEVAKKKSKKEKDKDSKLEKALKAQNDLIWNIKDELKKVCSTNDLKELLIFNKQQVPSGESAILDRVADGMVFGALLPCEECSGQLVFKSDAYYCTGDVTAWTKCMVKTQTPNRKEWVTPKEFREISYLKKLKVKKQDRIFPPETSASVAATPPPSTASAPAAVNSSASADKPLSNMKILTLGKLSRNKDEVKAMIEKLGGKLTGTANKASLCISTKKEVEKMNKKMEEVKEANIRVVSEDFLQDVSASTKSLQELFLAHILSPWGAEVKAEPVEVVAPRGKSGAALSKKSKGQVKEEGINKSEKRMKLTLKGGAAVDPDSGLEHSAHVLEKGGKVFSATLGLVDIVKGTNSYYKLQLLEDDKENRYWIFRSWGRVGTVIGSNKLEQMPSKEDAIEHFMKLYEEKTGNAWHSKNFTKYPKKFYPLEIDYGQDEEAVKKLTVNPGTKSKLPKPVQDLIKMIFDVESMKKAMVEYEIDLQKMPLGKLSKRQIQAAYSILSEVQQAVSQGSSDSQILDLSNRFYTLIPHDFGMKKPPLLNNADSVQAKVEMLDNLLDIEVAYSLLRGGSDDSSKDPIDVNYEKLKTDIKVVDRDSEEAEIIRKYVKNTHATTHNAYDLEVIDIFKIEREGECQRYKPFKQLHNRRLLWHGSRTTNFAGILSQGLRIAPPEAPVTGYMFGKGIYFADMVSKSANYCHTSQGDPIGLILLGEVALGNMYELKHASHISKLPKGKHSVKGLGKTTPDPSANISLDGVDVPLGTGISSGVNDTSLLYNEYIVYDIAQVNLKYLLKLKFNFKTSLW

## CN(CC1=CN2C(=Nc3cccc4c(=O)[nH]nc2c34)C=C1)C1CCN(c2ccccc2)CC1 [Compound A11]
  IC50: 160 nM
PARP1 enzyme inhibition rate
  Inhibition (%): 92.42%

## CN1CCC(N(C)CC2=CN3C(=Nc4cccc5c(=O)[nH]nc3c45)C=C2)CC1 [Compound A10]
  IC50: 119 nM
PARP1 enzyme inhibition rate
  Inhibition (%): 88.97%

## NC(=O)c1cccc(N)c1 [Compound 3-AB, reference compound]
PARP1 enzyme inhibition rate, 10 μM
  inhibition at 10 µM: 16.9%

## CNC1CCN(CC2=CN3C(=Nc4cccc5c(=O)[nH]nc3c45)C=C2)CC1 [Compound A8]
PARP1 enzyme inhibition rate
  Inhibition (%): 79.97%

## O=c1[nH]nc2c3c(cccc13)N=C1C=CC(CN3CCc4ccc(F)cc4C3)=CN12 [Compound A13]
PARP1 enzyme inhibition rate
  Inhibition (%): 79.67%

## CCN(CC)CC1=CN2C(=Nc3cccc4c(=O)[nH]nc2c34)C=C1 [Compound A3]
  IC50: 137 nM
PARP1 enzyme inhibition rate
  Inhibition (%): 84.77%

## O=c1[nH]nc2c3c(cccc13)N=C1C=CC(CN3CCCCC3)=CN12 [Compound A6]
  IC50: 294 nM
PARP1 enzyme inhibition rate
  Inhibition (%): 91.67%

## NC(=O)c1ccc(I)c([N+](=O)[O-])c1 [BSI-201, reference compound]
PARP1 enzyme inhibition rate, 1 μM
  inhibition at 1 µM: 23.6%

## O=c1[nH]nc2c3c(cccc13)N=C1C=CC(Cn3ccnc3)=CN12 [Compound A5]
  IC50: 164 nM
PARP1 enzyme inhibition rate
  Inhibition (%): 95.72%

## O=c1[nH]nc2c3c(cccc13)N=C1C=CC(CN3CCOCC3)=CN12 [Compound A7]
  IC50: 194 nM
PARP1 enzyme inhibition rate
  Inhibition (%): 73.37%

## CC1=CN2C(=Nc3cccc4c(=O)[nH]nc2c34)C=C1 [Compound 9]
  IC50: 81.9 nM
PARP1 enzyme inhibition rate
  Inhibition (%): 87.58%

## O=c1[nH]nc2c3c(cccc13)N=C1C=CC(CN3CCCC3)=CN12 [Compound A4]
  IC50: 103 nM
PARP1 enzyme inhibition rate
  Inhibition (%): 84.77%

## O=c1[nH]nc2c3c(cccc13)N=C1C=CC(CNCC(F)(F)F)=CN12 [Compound A2]
  IC50: 346 nM
PARP1 enzyme inhibition rate
  Inhibition (%): 76.29%

## CN(CC1=CN2C(=Nc3cccc4c(=O)[nH]nc2c34)C=C1)C1CCN(Cc2ccccc2)CC1 [Compound A12]
PARP1 enzyme inhibition rate
  Inhibition (%): 89.42%

## CN(C)C1CCN(CC2=CN3C(=Nc4cccc5c(=O)[nH]nc3c45)C=C2)CC1 [Compound A9]
PARP1 enzyme inhibition rate
  Inhibition (%): 82.15%
